Experiments:
[1] = Absorption spectra of free dye in methanol or pH 7.4 buffer; format: physicochemical; conditions: no DNA
Method: (§1) The strength of absorption and/or fluorescence is indicated by the extinction coefficient. The maximum extinction coefficient (εmax) for the unbound dyes is calculated from the longest wavelength absorption maximum according to the Beer-Lambert law based on the known concentration of the solutions. The extinction coefficient for the dye bound to DNA is calculated from the change in maximum absorbance compared to the dye in free aqueous solution. Typically the extinction coefficient for both bound and unbound dyes is between about 50,000 M^-1 cm^-1 and about 150,000 M^-1 cm^-1.
(§2) Solutions of Compounds 1-8 are prepared by accurately weighing 5 mg quantities and dissolving in DMSO (dimethylsulfoxide) to give a 1 mg/ml stock solution. These solutions are diluted 200 fold into either methanol or a pH 7.4 buffer solution comprising 10 mM Tris, 1 mM EDTA and 50 mM NaCl. Each absorption spectrum is recorded on an IBM Instruments 9420 spectrophotometer. The absorption maximum for each dye without the presence of nucleic acid polymers (λA) is tabulated (Table 2). To the solutions of Compounds 1-8 in pH 7.4 buffer is added sufficient calf thymus DNA (Sigma Chemical Co. D-1501) stock solution calculated to yield a ratio of 50 DNA base pairs per dye molecule or greater. The absorption maximum for each dye bound to DNA is again tabulated (Table 2). […] Where the spectra are not rescaled, the changes in extinction coefficient and absorption wavelength range accompanying binding to DNA are clearly illustrated (FIG. 2).

calf thymus DNA [2] = test: Absorption spectra of dye bound to calf thymus DNA; format: binding; conditions: pH 7.4 + DNA, ratio of 50 DNA base pairs per dye molecule or greater
Method: Absorption spectra of solutions of Compounds 1-8 (4 μM) in pH 7.4 buffer (10 mM Tris, 1 mM EDTA and 50 mM NaCl) are recorded on a Perkin-Elmer Lambda 6 spectrophotometer after the addition of sufficient calf thymus DNA (Sigma Chemical Co. D-1501) to yield a ratio of 50 DNA base pairs per dye molecule or greater. The spectra are normalized to a maximum absorbance of 1.0 by numerical rescaling.
The absorption spectrum of Compound 4 in buffer, prepared as for FIG. 1, is recorded on a Perkin-Elmer Lambda 6 spectrophotometer before and after addition of calf thymus DNA. The spectra are not rescaled, illustrating the changes in extinction coefficient and absorption wavelength range accompanying binding to DNA.
as §1, §2

calf thymus DNA [3] = test: Fluorescence emission spectra and enhancement on binding to calf thymus DNA; conditions: 0.4 μM dye; for λF (fluorescence maximum), bound to DNA: pH 7.4 + DNA; for Enhancement (QY + DNA)/(QY - DNA): pH 7.4, DNA:fluorophore ratio of 50 bp:1 or greater
Method: Fluorescence emission spectra of solutions (0.4 μM) of Compounds 1-8 in pH 7.4 buffer (10 mM Tris, 1 mM EDTA and 50 mM NaCl), after sufficient calf thymus DNA (Sigma Chemical Co. D-1501) is added to yield a ratio of 50 DNA base pairs per dye molecule or greater, are recorded on an Alphascan spectrofluorometer (PTI Inc.) with excitation at approximately (λA -25 nm) where λA is the absorption maximum of the dye bound to DNA (Table 2).
Solutions of each of Compounds 1-8 (0.4 μM) in pH 7.4 buffer (10 mM Tris, 1 mM EDTA and 50 mM NaCl) are prepared as above. Fluorescence emission spectra are recorded on an Alphascan spectrofluorometer (PTI Inc.) with excitation at approximately (λA -25 nm) where λA is the absorption maximum of the dye bound to DNA. After sufficient calf thymus DNA (Sigma Chemical Co. D-1501) is added to yield a ratio of 50 DNA base pairs per dye molecule or greater, fluorescence emission spectra are again recorded (Table 2). The spectra are integrated and enhancement ratio (Table 2) is calculated as follows: [formula] in which the ratio (A-)/(A+) is the ratio of the absorbances for the free and bound dye respectively at the excitation wavelength.

[4] = test system: DNA of mouse fibroblast 3T3 cells; test: Analysis of cellular DNA content (lysed 3T3 cells, fluorescence); format: cell-based
Method: Mouse fibroblast 3T3 cells aliquoted into microtiter plates are subjected to a freeze/thaw protocol to lyse cells and release DNA into solution. Compound 3 in TNE buffer is added to each well and the plates are scanned in a Cytofluor 2350 microtiter plate reader (Millipore Corp.) with excitation at 485 nm and emission detected at 530 nm. […] Treatment of half the wells with 20 μg/ml DNAse 1 for one hour at 37° C. in DNAse 1 buffer (10 mM MnCl2, 50 mM TRIS, pH 7.7) eliminates more than 95% of the fluorescence (filled circles).
The method of Rago et al. [Analytical Biochemistry 191, 31 (1990)] is adapted for use with the nucleotide-specific stain Compound 3. 3T3 cells (a mouse fibroblast cell line) are aliquoted into 96-well microtiter plates and allowed to adhere over a period of 4 hours. Cell numbers used are between 100 and 100,000 in 100 μl of Dulbecco's Modified Eagle Medium (DMEM). […]
For fluorescence analysis, 100 μl of distilled water is added to each well and the plates incubated at 37° C. for one hour, frozen at -80° C. then thawed to room temperature. […] 100 μl of 10 μM Compound 3 in TNE buffer (2 M NaCl, 10 mM TRIS, 1 mM EDTA pH 7.4) is added to each well and the plates scanned in a Cytofluor 2350 microtiter plate reader (Millipore Corp.) with excitation at 485 nm and emission detected at 530 nm. […]

calf thymus DNA [5] = test: Dye/nucleic acid affinity: partition coefficient Kp by fluorescence titration with DNA; format: binding
Method: The fluorescence intensity (F) determined in a fluorescence plate reader (CytoFluor from Millipore Corporation), is measured versus DNA concentration expressed in terms of base pairs concentration (B). […] In all the titrations, [Dye]/[Base Pair] is always […] than 3 to fulfill the requirements of the partition model.
The nucleic acid/water partition coefficient (Kp) representing the relative affinity of the dye for DNA is calculated from the fluorescence data according to the following formula:
1/F=[5.6·10^7 /(Kp Fo)](1/B)+1/Fo
where 5.6·10^7 (μM) is water molar concentration; B is the concentration of base pairs; and Fo is the fluorescence enhancement at saturation. Table 3 gives the Kp values of representative dyes via the partition model in the presence of 10% ethanol.

DNA or RNA = test: Optical properties upon binding with DNA or RNA (general statements); conditions: binding to nucleic acid polymers
From the text: The enhanced fluorescence of the dyes in the bound versus unbound state is exemplified in Table 2. In particular, the absorption curve typically shifts to a longer wavelength. Typically, the absorption curve shift is between about 5 and about 20 nm. […] When combined with nucleic acid polymers, the novel dyes of this invention generally have a Stokes shift of between about 15 to about 30 nm. Table 2 includes the excitation and emission maxima (λA and λF respectively) for Compounds 1-8.
The fluorescence of the novel dyes bound to DNA or RNA is enhanced at least about 9 fold. Typically fluorescence is enhanced at least about 100 fold, sometimes as much as 1000 fold or more, depending on the amount and purity of the dye present in the sample (Table 2). This significant increase in fluorescence intensity reduces or eliminates the problem of background fluorescence due to unbound dye, thus avoiding the necessity to separate the unbound dye before measuring the fluorescence. Even where the dyes are intrinsically fairly fluorescent, however, such that the enhancement in fluorescence quantum yield which results from binding to nucleic acid polymers is less than 10 fold (e.g. Compound 5), the significant shift in absorption maxima that results from such binding (see Table 2, FIG. 2) can be used to quantitatively or qualitatively measure the presence of nucleic acid polymers.

Row | SMILES | εmax (extinction coefficient) ([1]; methanol) | λA (absorption maximum) ([1]; methanol) [nm] | εmax (extinction coefficient) ([1]; pH 7.4 buffer) | λA (absorption maximum) ([1]; pH 7.4 buffer) [nm] | εmax (extinction coefficient), bound to DNA (calf thymus DNA [2]) | λA (absorption maximum), bound to DNA (calf thymus DNA [2]) [nm] | λF (fluorescence maximum), bound to DNA (calf thymus DNA [3]) [nm] | Enhancement (QY + DNA)/(QY - DNA) (calf thymus DNA [3]) [x] | fluorescence eliminated by DNAse 1 treatment ([4]; 20 μg/ml DNAse 1, one hour, 37° C.) | fluorescence versus cell number ([4]; Ex 485 nm, Em 530 nm, TNE buffer) | effect of ethanol on DNA affinity (Kp) (calf thymus DNA [5]; 10% ethanol) | apparent affinity Kp, effect of dye concentration (calf thymus DNA [5]; binding buffer without ethanol, 0.1 vs 0.22 μM dye) | enhancement in fluorescence quantum yield on binding (DNA or RNA)
1 | C[n+]1c(C=C2C=CN(CCC[N+](C)(C)C)C=C2)oc2ccccc21 [Compound 1] | 77,500 M^-1 cm^-1 | 423 | 75,500 M^-1 cm^-1 | 423 | 50,100 M^-1 cm^-1 | 435 | 455 | 456 | – | – | – | – | –
2 | C[n+]1c(C=C2C=CN(CCC[N+](C)(C)C)C=C2)sc2ccccc21 [Compound 2] | 80,200 M^-1 cm^-1 | 452 | 76,200 M^-1 cm^-1 | 451 | 58,100 M^-1 cm^-1 | 462 | 481 | 892 | – | – | – | – | –
3 | C[n+]1c(C=C2C=CN(CCC[N+](C)(C)C)c3ccccc32)oc2ccccc21 [Compound 3] | 72,600 M^-1 cm^-1 | 482 | 66,000 M^-1 cm^-1 | 481 | 52,013 M^-1 cm^-1 | 491 | 509 | 925 | more than 95% | linear increase of fluorescence with cell number | – | – | –
4 | C[n+]1c(C=C2C=CN(CCC[N+](C)(C)C)c3ccccc32)sc2ccccc21 [Compound 4] | 73,800 M^-1 cm^-1 | 507 | 68,500 M^-1 cm^-1 | 506 | 62,800 M^-1 cm^-1 | 515 | 531 | 1806 | – | – | ethanol decreases the DNA affinity | larger with 0.1 μM dye than with 0.22 μM | –
5 | C[n+]1c(C=CC=CC=C2C=CN(CCC[N+](C)(C)C)C=C2)oc2ccccc21 [Compound 5] | – | 525 | – | 523 | – | 532 | 562 | 9 | – | – | – | – | less than 10 fold
6 | C[n+]1c(C=CC=CC=C2C=CN(CCC[N+](C)(C)C)C=C2)sc2ccccc21 [Compound 6] | – | 564 | – | 560 | – | 575 | 599 | 29 | – | – | – | – | –
7 | C[n+]1c(C=CC=C2C=CN(CCC[N+](C)(C)C)c3ccccc32)oc2ccccc21 [Compound 7] | 133,100 M^-1 cm^-1 | 600 | 122,000 M^-1 cm^-1 | 596 | 100,100 M^-1 cm^-1 | 612 | 631 | 155 | – | – | – | – | –
8 | C[n+]1c(C=CC=C2C=CN(CCC[N+](C)(C)C)c3ccccc32)sc2ccccc21 [Compound 8] | 143,200 M^-1 cm^-1 | 635 | 98,200 M^-1 cm^-1 | 631 | 102,000 M^-1 cm^-1 | 642 | 661 | 80 | – | – | – | – | –
